The structures appear in SMILES notation.

By melting point is commonly meant the temperature, or range, at which the solid turns liquid. For the compound `CC(C)(C)C(=O)N1CCOC(C(=O)O)C1` (configuration not stated), the melting point lay in the range of 148 to 150 °C. As for `Cc1cc(=O)c(C(=O)O)nn1-c1ccccc1[N+](=O)[O-]`, the melting point was 240 to 242 °C. In the case of `N#Cc1c(S)nc2c(c1-c1ccco1)CCC2`, the melting point fell in the range of 279 to 281 °C. Compound `COc1cc(C(=O)O)cc(CC(C)Cl)c1OC` (configuration not stated) came in with a melting point of 103 to 105 °C. In turn, `N#Cc1oc2ccccc2c1O` displayed a melting point of 138 to 140 °C. Compound `O=C(O)c1ccc(-c2nc(C3CC3)n[nH]2)cc1` displayed a melting point of 237 to 239 °C.

`CC(O)Cc1ccc2ccccc2n1` (configuration not stated) came in with a melting point of 64 to 66 °C.

As to `Cn1cccc(C(=O)O)c1=O`, the melting point was 185 to 187 °C. Next, `Cc1cc(C#N)c(N)s1`: 100 to 102 °C; `CC(=O)c1ccc(CNC(=O)OC(C)(C)C)nc1C`: 72 to 74 °C; `Sc1nnc(CCCc2ccccc2)o1`: 53 to 55 °C. As to `Cn1c(=O)[nH]c2cc(C(=O)O)ccc21`, the melting point lay within 391 to 393 °C. On to `NC(=S)C1(NC(=O)c2ccccc2)CCCCC1`, for which the melting point was in the range of 189 to 191 °C.

The compound `O=C1CC(C(=O)O)C(C(=O)O)C1` (configuration not stated) came in with a melting point of 186 to 188 °C. `Nc1cccc(-c2nnco2)c1`: the melting point was 66 to 68 °C. Turning to `CC(=O)NCc1ccc(S(N)(=O)=O)s1`, the melting point lay within 121 to 123 °C. In turn, `CCOc1c(Br)cc(C(=O)O)cc1OC` returned a melting point of 140 to 142 °C. Consider `CC1Oc2ccccc2OC1C(=O)O` (configuration not stated), for which the melting point was 106 to 108 °C. The compound `Cc1ccc2cc(C(=O)O)c(C)nc2c1` displayed a melting point of 197 to 199 °C. Regarding `COC(=O)C=Cc1ccc(C(F)(F)F)cc1`, the melting point was in the range of 74 to 76 °C. Consider `O=S1CCNc2ccccc21` (configuration not stated), for which the melting point was 201 to 203 °C. `O=C(O)C1CCN(C(=O)NC2CC2)CC1`: the melting point was in the range of 123 to 125 °C. Regarding `CCn1c(SCC(=O)O)nnc1-c1cccs1`, the melting point lay in the range of 157 to 159 °C. With `COc1ccc2c(c1)C1(CC2)NC(=O)NC1=O` (configuration not stated), the melting point is 189 to 191 °C. Next, `COC(=O)c1ccc2ccccc2n1`: 83 to 85 °C; `O=S(=O)(Cl)c1cnc(Cl)cc1Cl`: 79 to 81 °C. Take `NC(=O)Nc1ccccc1Oc1ccccc1`: the melting point was in the range of 182 to 184 °C. Take `O=C(Cc1ccc(Br)cc1)Nc1ccc(C(=O)O)cc1`: the melting point lay in the range of 282 to 284 °C. `O=C(O)c1ccc(O)c2ccccc12` yielded a melting point of 184 to 186 °C. Next, `O=C(Cc1ccccn1)c1ccc(Br)cc1`: 126 to 128 °C; `Cc1cc(C(=O)CCl)c(C)s1`: 53 to 57 °C; `Nc1cc(-c2cc(F)cc(F)c2)no1`: 114 to 116 °C. `O=C1COc2ccc(Br)cc21`: the melting point lay in the range of 111 to 113 °C. Regarding `O=C(O)C1(Br)CCCCC1`, the melting point lay within 57 to 59 °C. In turn, `Nc1ccc(N2CCNCC2)cn1` had a melting point of 162 to 164 °C. `O=C(O)c1csc(-c2cnn(-c3ccccc3)c2)n1` showed a melting point of 202 to 204 °C. `Cc1ccc2ncc(C#N)n2c1` yielded a melting point of 126 to 128 °C. The compound `CCOc1cc(CC#N)ccc1OCC(F)(F)F` yielded a melting point of 40 to 42 °C.

The compound `CC(=O)Nc1ccsc1` displayed a melting point of 146 to 148 °C.

For the compound `OC(CC1CCCCCN1)c1ccccc1` (configuration not stated), the melting point lay in the range of 36 to 38 °C. `Nc1noc(C2CC2)n1` displayed a melting point of 84 to 86 °C. As to `CCOC(=O)c1cc(C)nc(-c2ccccc2)n1`, the melting point is 94 to 96 °C.

The compound `Nc1cc(CC2CC3CCC2C3)no1` (configuration not stated) gave a melting point of 86 to 88 °C. In the case of `CCOc1ccc(C(=O)O)cc1[N+](=O)[O-]`, the melting point lay in the range of 201 to 203 °C. As to `CCOC(=O)Nc1cccc(O)c1`, the melting point lay within 95 to 97 °C. On to `Cc1cc(C(=O)O)nn1-c1ccc(Br)cc1`, for which the melting point lay within 211 to 213 °C. Consider `Cc1ccccc1-n1c(S)nc2ccccc2c1=O`, for which the melting point lay in the range of 96 to 97 °C. For the compound `Cc1nn(C(C)(C)C)c(C)c1S(=O)(=O)Cl`, the melting point lay in the range of 68 to 70 °C.

Turning to `Nc1sc2c(c1C(=O)O)CCSC2`, the melting point fell in the range of 169 to 171 °C. In the case of `NS(=O)(=O)c1ccccc1Cn1ccnc1` it was 149 to 151 °C; in that of `COc1ccccc1NS(=O)(=O)c1ccc(O)c(N)c1`, 167 to 169 °C; in that of `COc1cc(Cl)ccc1S(=O)(=O)Cl`, 89 to 91 °C. Compound `O=C(O)C1CCCN(C(=O)N2CCc3sccc3C2)C1` (configuration not stated) registered a melting point of 66 to 68 °C. In turn, `BrCCOc1ccc2ccccc2c1` came in with a melting point of 94 to 96 °C.

`Nc1ccc2ccoc2c1` yielded a melting point of 51 to 53 °C. In the case of `ON=Cc1ccc(Oc2ncccn2)cc1` it was 177 to 179 °C; in that of `CC(C)(C)c1ccc(Nc2ncccc2C(N)=S)cc1`, 152 to 154 °C. `C=CCN(CC=C)C(=O)c1ccc(N)cc1` came in with a melting point of 104 to 106 °C. For `O=C1CCC(O)(c2cccc(F)c2)CC1`, the melting point lay within 111 to 113 °C.

With `Brc1cnn(-c2nccs2)c1`, the melting point lay in the range of 78 to 80 °C. In the case of `Cc1cc(C)c(OCC(=O)O)c(C)c1`, the melting point fell in the range of 150 to 152 °C. For `Cc1cc(NC(=O)c2cccc(F)c2)sc1C(=O)O`, the melting point was 211 to 213 °C. The compound `Cc1ccc(S(N)(=O)=O)c(C(=O)O)c1` registered a melting point of 271 to 273 °C. As to `O=[N+]([O-])C=Cc1ccc(F)cc1F`, the melting point is 55 to 57 °C. Next, `Clc1ccc(Br)c2ccccc12`: 62 to 64 °C; `O=C1CNc2ccccc2N1`: 119 to 121 °C. As for `CC1=CC=CC(=C2Nc3ccc(F)cc3N2C(C)C)C1=N`, the melting point is 160 to 162 °C. `O=C(O)C1CCCCN1C1=NS(=O)(=O)c2ccccc21` (configuration not stated) yielded a melting point of 185 to 187 °C. `O=C(CCl)NCc1cccc(F)c1` registered a melting point of 53 to 55 °C. In the case of `CC(C)(C)c1nn(-c2ccccc2)cc1C=O` it was 57 to 59 °C. Regarding `CC(=O)c1csc(C(=O)O)c1`, the melting point was in the range of 149 to 151 °C.

`CCNc1nc2cc(Cl)ccc2s1` displayed a melting point of 118 to 120 °C. Regarding `COc1ccc2ccccc2c1-c1cc(CBr)on1`, the melting point lay in the range of 85 to 87 °C. For `Cc1ccc(CNC(=O)c2cccc(C#N)c2)cc1`, the melting point is 134 to 136 °C. Take `O=C(O)c1ccccc1SCC(F)(F)F`: the melting point was 169 to 171 °C. `Nc1ccccc1-c1ccncc1` returned a melting point of 83 to 85 °C. On to `COc1ccc(C(=O)C=C(SC)SC)cc1`, for which the melting point was in the range of 99 to 101 °C. In turn, `Cc1ccc(CCC(=O)O)cc1Cl` returned a melting point of 84 to 86 °C. Turning to `O=C(O)CSCc1cccnc1`, the melting point is 109 to 111 °C. On to `CC(C)c1ccc(Cn2nccc2N)cc1`, for which the melting point is less than 17 °C. As for `O=C(c1cccc(F)c1)c1cccc(Cl)c1`, the melting point fell in the range of 62 to 64 °C. As for `Nc1cc(N2CCOC2=O)ccc1F`, the melting point lay in the range of 119 to 121 °C. Turning to `Cc1ccc(NS(=O)(=O)c2cc(N)ccc2Cl)c(C)c1`, the melting point was in the range of 57 to 59 °C. `N#CCN1CCc2ccc(N)cc21` returned a melting point of 87 to 89 °C. In the case of `O=C(CCCl)N1CCOCC1` it was 46 to 48 °C; in that of `NS(=O)(=O)c1cnn(Cc2ccccc2)c1`, 157 to 159 °C; in that of `O=C(O)CCCN1C(=O)c2cccc3cccc(c23)C1=O`, 86 to 88 °C.

In turn, `CNC(=O)c1cc([N+](=O)[O-])ccc1F` returned a melting point of 142 to 144 °C. In turn, `CCc1cccc2c(C3=CCNCC3)c[nH]c12` yielded a melting point of 190 to 192 °C. In the case of `Cc1ccc(C#N)c(N2CCOCC2)c1`, the melting point fell in the range of 86 to 88 °C. Take `NS(=O)(=O)c1cccc(-n2cnnn2)c1`: the melting point fell in the range of 181 to 183 °C. For `O=C(O)C1CSCN1C(=O)c1c[nH]c2ccccc12` (configuration not stated), the melting point lay in the range of 159 to 161 °C. Next, `Cc1c(Br)cc(S(C)(=O)=O)cc1C(=O)O`: 134 to 136 °C; `O=C(O)c1ccc(S(=O)(=O)NCc2cccs2)cc1`: 232 to 234 °C. Compound `O=C(Nc1ccccc1)OCCBr` registered a melting point of 64 to 66 °C.

Regarding `Cc1ccc(-c2ccncc2)cc1N`, the melting point fell in the range of 202 to 204 °C.

`O=C(O)CCC(=O)c1ccc2ccc3cccc4ccc1c2c34` registered a melting point of 184 to 186 °C. Turning to `CC1CC(C)(C)CC2(C1)NC(=O)NC2=O` (configuration not stated), the melting point lay in the range of 273 to 275 °C.

Take `Cc1ccc(C2OCCCC2C(=O)O)cc1` (configuration not stated): the melting point is 126 to 128 °C. `O=C(O)CC=Cc1ccc(F)cc1` displayed a melting point of 111 to 113 °C.

The compound `Cn1nnnc1SCC(=O)O` displayed a melting point of 108 to 110 °C.

`Cc1nc(-c2ccc(C(C)N)cc2)cs1` (configuration not stated) registered a melting point of 74 to 76 °C. In turn, `NC1CCN(c2ccc(Cl)c(Cl)c2)C1=O` (configuration not stated) returned a melting point of 104 to 106 °C. In the case of `COc1ccc(-c2nn(-c3ccccc3)cc2C(=O)O)cc1OC`, the melting point was in the range of 188 to 190 °C.

With `O=C(O)CCNC(=O)C1CCC1`, the melting point fell in the range of 105 to 107 °C. `N#CCCN(C(=O)CCC(=O)O)c1ccccc1` came in with a melting point of 98 to 100 °C. With `CC(=O)NCC1CCNCC1`, the melting point was in the range of 97 to 99 °C. As to `Cc1ccc(C(=O)O)c(Sc2ccccc2)n1`, the melting point was 169 to 171 °C. Next, `CC1CCCN(c2ccccc2O)C1` (configuration not stated): 44 to 46 °C; `Cc1ccc(S(N)(=O)=O)cc1N(C)C`: 126 to 128 °C; `Oc1cccc(Oc2ncccn2)c1`: 192 to 194 °C. Next, `NCC(=O)N1CCN(c2ccc(Cl)cc2)CC1`: 87 to 89 °C. `COC(=O)c1sc(C)c(Br)c1O` returned a melting point of 95 to 97 °C.

For `Cc1n[nH]c(=O)c(C(=O)O)c1C`, the melting point lay in the range of 179 to 181 °C. Compound `N#Cc1cccc(NCc2ccc(Cl)cc2)c1` registered a melting point of 84 to 86 °C. `CCOC(=O)C(=O)c1cc(Br)ccc1OC` displayed a melting point of 69 to 71 °C. For `NC(=NO)c1cccc(NC(=O)CN2CCOCC2)c1`, the melting point was 99 to 101 °C. Turning to `Cc1c(C(=O)O)cc(Br)cc1S(N)(=O)=O`, the melting point was in the range of 213 to 215 °C. In the case of `CNC(=S)NC1CC1` it was 108 to 110 °C. Take `Sc1nc2ncccn2n1`: the melting point lay within 234 to 236 °C. Turning to `COCCS(=O)(=O)Cc1cccc(S(=O)(=O)Cl)c1`, the melting point fell in the range of 109 to 111 °C. In the case of `Nc1cc(Br)ccc1N1CCOCC1`, the melting point lay in the range of 153 to 155 °C.

Source of the values: a melting point compilation (Tetko et al.).
